# According to patent publication US20230233569A1 (Revolution Medicines, Inc., priority 2020, published 2023):
# Key:
# NCI-H358 (K-Ras G12C) = assay: CellTiter-Glo cell viability assay, 5-day treatment; type: cell-based; conditions: Homo sapiens, NCI-H358, 120 h, 5-day treatment; read-out: H358 Cell Viability assay data (K-Ras G12C, IC50)
# In short: (§1)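 Five-day compound treatment of plated cells; luminescent read after ~30 min at RT. Percent-of-DMSO data fit to a four-parameter logistic model.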
# Capan-1 (K-Ras G12V) = assay: as above; type: cell-based; conditions: Homo sapiens, CAPAN-1, 120 h, 5-day treatment; read-out: Capan-1 Cell Viability assay data (K-Ras G12V, IC50)
# In short: as §1
# KRAS G12D = KRAS G12D (Homo sapiens, UniProt P01116+P62937, G12D); assay: Disruption of BRAF RBD interaction with Ras (FRET / MOA assay, with Cyclophilin A); type: biochemical; conditions: read-out: KRAS G12D FRET data, IC50
# In short: (§2)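 Cyclophilin A-dependent ternary complex assay. K-Ras loaded with nucleotide; BRAF RBD as effector. Cpd top 30 μM final, 3 h at 25 °C. Readout: TR-FRET ratio, IC50.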
# KRAS G13C = KRAS G13C (Homo sapiens, UniProt P01116+P62937, G13C); assay: as above; type: biochemical; conditions: read-out: KRAS G13C FRET data, IC50
# In short: as §2
# KRAS G12C = KRAS G12C (Homo sapiens, UniProt P01116+P62937, G12C); assay: as above; type: biochemical; conditions: read-out: KRAS G12C FRET data, IC50
# In short: as §2
# KRAS G12S = KRAS G12S (Homo sapiens, UniProt P01116+P62937, G12S); assay: as above; type: biochemical; conditions: read-out: KRAS G12S FRET data, IC50
# In short: as §2
# NRAS G12C = NRAS G12C (Homo sapiens, UniProt P01111+P62937, G12C); assay: as above; type: biochemical; conditions: NRAS G12C; read-out: NRAS G12C FRET data IC50
# KRAS G13D = KRAS G13D (Homo sapiens, UniProt P01116+P62937, G13D); assay: as above; type: biochemical; conditions: KRAS G13D; read-out: KRAS G13D FRET data IC50
# In short: as §2
# KRAS WT = KRAS WT (Homo sapiens, UniProt P01116+P62937); assay: as above; type: biochemical; conditions: KRAS WT; read-out: KRAS WT FRET data IC50
# In short: as §2
# KRAS G12V = KRAS G12V (Homo sapiens, UniProt P01116+P62937, G12V); assay: as above; type: biochemical; conditions: KRAS G12V; read-out: KRAS G12V FRET data IC50
# In short: as §2
# NRAS Q61R = NRAS Q61R (Homo sapiens, UniProt P01111+P62937, Q61R); assay: as above; type: biochemical; conditions: NRAS Q61R; read-out: NRAS Q61R FRET data IC50
# In short: (§3)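 TR-FRET in 25 mM HEPES pH 7.3, 100 mM NaCl, 5 mM MgCl2, 0.1% BSA: 25 μM Cyclophilin A, 12.5 nM His6-Ras-GMPPNP, 50 nM GST-BRAF RBD with compound (10-point 3-fold series from 30 μM), 3 h at 25° C. Anti-His Eu/anti-GST APC added, 1.5 h more; IC50 from decreased FRET ratio versus DMSO.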
# NRAS Q61K = NRAS Q61K (Homo sapiens, UniProt P01111+P62937, Q61K); assay: as above; type: biochemical; conditions: NRAS Q61K; read-out: NRAS Q61K FRET data IC50
# In short: as §3
# NRAS WT = NRAS WT (Homo sapiens, UniProt P01111+P62937); assay: as above; type: biochemical; conditions: NRAS WT; read-out: NRAS WT FRET data IC50
# In short: as §3
# KRAS Q61H = KRAS Q61H (Homo sapiens, UniProt P01116+P62937, Q61H); assay: as above; type: biochemical; conditions: KRAS Q61H; read-out: KRAS Q61H FRET data IC50
# In short: as §3
# KRAS G12V, sequence (P01116 1-169 isoform P01116-2 G12V limits assumed): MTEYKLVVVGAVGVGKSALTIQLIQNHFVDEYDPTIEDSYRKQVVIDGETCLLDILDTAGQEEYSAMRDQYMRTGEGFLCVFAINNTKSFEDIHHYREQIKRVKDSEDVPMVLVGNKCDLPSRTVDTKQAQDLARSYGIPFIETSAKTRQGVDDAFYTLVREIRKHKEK
# KRAS G12V, sequence (P62937 whole entry): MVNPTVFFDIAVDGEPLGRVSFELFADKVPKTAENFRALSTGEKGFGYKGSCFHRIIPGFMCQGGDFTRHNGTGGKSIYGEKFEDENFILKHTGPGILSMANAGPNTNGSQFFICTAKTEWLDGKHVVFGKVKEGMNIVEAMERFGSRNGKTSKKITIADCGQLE
# NRAS G12C, sequence (P01111 whole entry G12C): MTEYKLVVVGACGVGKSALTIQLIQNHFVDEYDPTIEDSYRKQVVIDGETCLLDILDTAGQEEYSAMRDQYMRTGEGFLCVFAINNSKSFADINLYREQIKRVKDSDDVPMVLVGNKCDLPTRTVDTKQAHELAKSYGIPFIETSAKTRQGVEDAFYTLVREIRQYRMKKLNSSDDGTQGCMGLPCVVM
# NRAS G12C, sequence (P62937 whole entry): as the sequence (P62937 whole entry) above
# NRAS WT, sequence (P01111 whole entry): as the sequence (P01111 whole entry G12C) above, with C12G counted along it
# NRAS WT, sequence (P62937 whole entry): as the sequence (P62937 whole entry) above
# NRAS Q61K, sequence (P01111 whole entry Q61K): as the sequence (P01111 whole entry G12C) above, with C12G, Q61K counted along it
# NRAS Q61K, sequence (P62937 whole entry): as the sequence (P62937 whole entry) above
# KRAS Q61H, sequence (P01116 1-169 isoform P01116-2 Q61H limits assumed): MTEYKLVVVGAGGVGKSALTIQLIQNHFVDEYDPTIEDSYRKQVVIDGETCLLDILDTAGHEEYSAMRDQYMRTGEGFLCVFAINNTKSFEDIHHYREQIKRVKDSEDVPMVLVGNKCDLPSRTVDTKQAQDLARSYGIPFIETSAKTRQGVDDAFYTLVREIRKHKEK
# KRAS Q61H, sequence (P62937 whole entry): as the sequence (P62937 whole entry) above
# KRAS WT, sequence (P01116 1-169 isoform P01116-2 limits assumed): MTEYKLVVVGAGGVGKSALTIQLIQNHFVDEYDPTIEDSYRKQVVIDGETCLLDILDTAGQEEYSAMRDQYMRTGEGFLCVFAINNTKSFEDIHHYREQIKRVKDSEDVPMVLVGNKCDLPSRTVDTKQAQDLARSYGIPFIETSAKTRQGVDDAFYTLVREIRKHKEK
# KRAS WT, sequence (P62937 whole entry): as the sequence (P62937 whole entry) above
# KRAS G12D, sequence (P01116 1-169 isoform P01116-2 G12D limits assumed): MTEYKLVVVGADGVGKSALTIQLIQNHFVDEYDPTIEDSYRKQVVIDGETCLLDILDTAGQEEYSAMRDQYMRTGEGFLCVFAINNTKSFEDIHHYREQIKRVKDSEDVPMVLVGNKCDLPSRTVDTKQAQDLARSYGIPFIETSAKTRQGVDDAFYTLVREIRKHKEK
# KRAS G12D, sequence (P62937 whole entry): as the sequence (P62937 whole entry) above
# KRAS G13D, sequence (P01116 1-169 isoform P01116-2 G13D limits assumed): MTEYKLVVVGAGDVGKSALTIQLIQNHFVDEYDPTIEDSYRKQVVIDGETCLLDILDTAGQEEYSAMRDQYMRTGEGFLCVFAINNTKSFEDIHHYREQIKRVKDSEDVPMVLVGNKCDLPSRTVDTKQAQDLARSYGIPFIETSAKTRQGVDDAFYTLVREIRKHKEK
# KRAS G13D, sequence (P62937 whole entry): as the sequence (P62937 whole entry) above
# KRAS G12S, sequence (P01116 1-169 isoform P01116-2 G12S limits assumed): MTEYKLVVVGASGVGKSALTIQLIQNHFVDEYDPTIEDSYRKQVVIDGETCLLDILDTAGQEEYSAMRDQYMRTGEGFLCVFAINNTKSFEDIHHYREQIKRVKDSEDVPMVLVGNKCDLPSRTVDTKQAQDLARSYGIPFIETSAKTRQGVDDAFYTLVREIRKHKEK
# KRAS G12S, sequence (P62937 whole entry): as the sequence (P62937 whole entry) above
# NRAS Q61R, sequence (P01111 whole entry Q61R): as the sequence (P01111 whole entry G12C) above, with C12G, Q61R counted along it
# NRAS Q61R, sequence (P62937 whole entry): as the sequence (P62937 whole entry) above
# KRAS G13C, sequence (P01116 1-169 isoform P01116-2 G13C): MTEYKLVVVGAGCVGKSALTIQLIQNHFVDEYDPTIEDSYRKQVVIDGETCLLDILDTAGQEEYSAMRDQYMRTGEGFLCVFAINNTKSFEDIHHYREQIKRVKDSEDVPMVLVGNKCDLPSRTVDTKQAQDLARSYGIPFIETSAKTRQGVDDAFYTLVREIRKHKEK
# KRAS G13C, sequence (P62937 whole entry): as the sequence (P62937 whole entry) above
# KRAS G12C, sequence (P01116 1-169 isoform P01116-2 G12C): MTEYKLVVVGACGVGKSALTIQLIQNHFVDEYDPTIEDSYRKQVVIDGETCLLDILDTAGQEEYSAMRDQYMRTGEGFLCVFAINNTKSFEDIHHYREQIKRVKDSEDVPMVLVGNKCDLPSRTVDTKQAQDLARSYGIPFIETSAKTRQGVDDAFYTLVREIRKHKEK
# KRAS G12C, sequence (P62937 whole entry): as the sequence (P62937 whole entry) above
SMILES,IC50 (NCI-H358 (K-Ras G12C)) [µM],IC50 (Capan-1 (K-Ras G12V)) [µM],IC50 (KRAS G12D) [µM],IC50 (KRAS G13C) [µM],IC50 (KRAS G12C) [µM],IC50 (KRAS G12S) [µM],IC50 (NRAS G12C) [µM],IC50 (KRAS G13D) [µM],IC50 (KRAS WT) [µM],IC50 (KRAS G12V) [µM],IC50 (NRAS Q61R) [µM],IC50 (NRAS Q61K) [µM],IC50 (NRAS WT) [µM],IC50 (KRAS Q61H) [µM]
"CCn1c(-c2cccnc2[C@H](C)OC)c2c3cc(ccc31)-c1csc(n1)C[C@H](NC(=O)[C@H](C(C)C)N(C)C(=O)N1CCCC13COC3)C(=O)N1CCC[C@H](N1)C(=O)OCC(C)(C)C2 (atropisomer, axis not shown) [Example A528]",0.01 to 0.1,0.01 to 0.1,0.1 to 1,0.1 to 1,0.01 to 0.1,0.1 to 1,0.01 to 0.1,0.1 to 1,0.01 to 0.1,0.1 to 1,0.01 to 0.1,0.01 to 0.1,0.01 to 0.1,0.01 to 0.1
"CCn1c(-c2cc(N3CCN(C)CC3)cnc2[C@H](C)OC)c2c3cc(ccc31)-c1csc(n1)C[C@H](NC(=O)[C@H](C1CCCC1)N(C)C(=O)N1CCC1)C(=O)N1CCC[C@H](N1)C(=O)OCC(C)(C)C2 (atropisomer, axis not shown) [Example A529]",< 0.01,< 0.01,0.1 to 1,0.01 to 0.1,0.01 to 0.1,0.01 to 0.1,0.01 to 0.1,0.01 to 0.1,0.01 to 0.1,0.01 to 0.1,0.01 to 0.1,0.01 to 0.1,0.01 to 0.1,0.01 to 0.1
"CCn1c(-c2cccnc2[C@H](C)OC)c2c3cc(ccc31)-c1csc(n1)C[C@H](NC(=O)[C@H](C(C)C)N(C)C(=O)N1CCC[C@@H](N(C)C)C1)C(=O)N1CCC[C@H](N1)C(=O)OCC(C)(C)C2 (atropisomer, axis not shown) [Example A531]",0.01 to 0.1,0.01 to 0.1,0.1 to 1,0.1 to 1,0.1 to 1,0.1 to 1,0.01 to 0.1,0.1 to 1,0.1 to 1,0.1 to 1,0.1 to 1,0.01 to 0.1,0.01 to 0.1,0.01 to 0.1
"CCn1c(-c2cccnc2[C@H](C)OC)c2c3cc(ccc31)-c1csc(n1)C[C@H](NC(=O)[C@H](C(C)C)N(C)C(=O)N1CC3(CC(N(C)CCOC)C3)C1)C(=O)N1CCC[C@H](N1)C(=O)OCC(C)(C)C2 (atropisomer, axis not shown) [Example A532]",0.01 to 0.1,0.01 to 0.1,1 to 10,0.1 to 1,0.1 to 1,0.1 to 1,0.1 to 1,0.1 to 1,0.1 to 1,0.1 to 1,0.1 to 1,0.01 to 0.1,0.1 to 1,0.1 to 1
"CCn1c(-c2cccnc2[C@H](C)OC)c2c3cc(ccc31)-c1cc(O)cc(c1)C[C@H](NC(=O)[C@H](C(C)C)N(C)C(=O)[C@@H]1OCC[C@@H]1c1cccnc1)C(=O)N1CCC[C@H](N1)C(=O)OCC(C)(C)C2 (atropisomer, axis not shown) [Example A546]",< 0.01,0.01 to 0.1,0.01 to 0.1,0.01 to 0.1,< 0.01,0.01 to 0.1,0.01 to 0.1,0.01 to 0.1,0.01 to 0.1,0.01 to 0.1,0.01 to 0.1,0.01 to 0.1,0.01 to 0.1,< 0.01
"CCn1c(-c2cccnc2[C@H](C)OC)c2c3cc(ccc31)-c1csc(n1)C[C@H](NC(=O)[C@H](C(C)C)N(C)C(=O)N1CC(S(=O)(=O)NC)C1)C(=O)N1CCC[C@H](N1)C(=O)OCC(C)(C)C2 (atropisomer, axis not shown) [Example A549]",0.01 to 0.1,0.01 to 0.1,0.1 to 1,0.1 to 1,0.01 to 0.1,0.1 to 1,0.01 to 0.1,0.1 to 1,0.1 to 1,0.1 to 1,0.1 to 1,0.01 to 0.1,0.1 to 1,0.01 to 0.1
"CCn1c(-c2cccnc2[C@H](C)OC)c2c3cc(ccc31)-c1csc(n1)C[C@H](NC(=O)[C@H](C(C)C)N(C)C(=O)N1CC(N(C)S(C)(=O)=O)C1)C(=O)N1CCC[C@H](N1)C(=O)OCC(C)(C)C2 (atropisomer, axis not shown) [Example A550]",0.01 to 0.1,0.01 to 0.1,1 to 10,0.1 to 1,0.01 to 0.1,0.1 to 1,0.01 to 0.1,0.1 to 1,0.1 to 1,0.1 to 1,0.1 to 1,0.01 to 0.1,0.1 to 1,0.01 to 0.1
"CCn1c(-c2cc(N3CCN(C)CC3)cnc2[C@H](C)OC)c2c3cc(ccc31)-c1csc(n1)C[C@H](NC(=O)[C@H](C(C)C)N(C)C(=O)N1CCOCC1)C(=O)N1CCC[C@H](N1)C(=O)OCC(C)(C)C2 (atropisomer, axis not shown) [Example A555]",< 0.01,< 0.01,0.1 to 1,0.01 to 0.1,0.01 to 0.1,0.01 to 0.1,0.01 to 0.1,0.1 to 1,0.01 to 0.1,0.01 to 0.1,0.01 to 0.1,0.01 to 0.1,0.01 to 0.1,0.01 to 0.1
"CCn1c(-c2cc(N3CCN(C)CC3)cnc2[C@H](C)OC)c2c3cc(ccc31)-c1cccc(c1)C[C@H](NC(=O)[C@H](C(C)C)N(C)C(=O)[C@@H]1OCC[C@@H]1c1ccccc1)C(=O)N1CCC[C@H](N1)C(=O)OCC(C)(C)C2 (atropisomer, axis not shown) [Example A562]",< 0.01,< 0.01,0.1 to 1,0.01 to 0.1,0.01 to 0.1,0.1 to 1,0.01 to 0.1,0.1 to 1,0.01 to 0.1,0.01 to 0.1,0.01 to 0.1,0.1 to 1,0.01 to 0.1,0.01 to 0.1
"CCn1c(-c2cccnc2[C@H](C)OC)c2c3cc(ccc31)-c1csc(n1)C[C@H](NC(=O)[C@H](C(C)C)N(C)C(=O)N1CCC3(CCN(C)CC3)C1)C(=O)N1CCC[C@H](N1)C(=O)OCC(C)(C)C2 (atropisomer, axis not shown) [Example A565]",0.01 to 0.1,0.01 to 0.1,0.1 to 1,0.1 to 1,0.01 to 0.1,0.01 to 0.1,0.01 to 0.1,0.1 to 1,0.01 to 0.1,0.1 to 1,0.01 to 0.1,0.01 to 0.1,0.01 to 0.1,0.01 to 0.1
"CCn1c(-c2cccnc2[C@H](C)OC)c2c3cc(ccc31)-c1csc(n1)C[C@H](NC(=O)[C@H](C(C)C)N(C)C(=O)N1CC[C@@H](N(C)C)C1)C(=O)N1CCC[C@H](N1)C(=O)OCC(C)(C)C2 (atropisomer, axis not shown) [Example A566]",0.01 to 0.1,0.01 to 0.1,0.1 to 1,0.1 to 1,0.1 to 1,0.1 to 1,0.1 to 1,0.1 to 1,0.1 to 1,0.1 to 1,0.1 to 1,0.01 to 0.1,0.1 to 1,0.01 to 0.1
